Results taken from ChEMBL document CHEMBL3885881, “DrugMatrix”.

Species on record: Rattus norvegicus
Assay: DrugMatrix - Regimen: Daily Repeat
Format: toxicity, organism-based, Sprague-Dawley
Set-up: regimen Daily Repeat, gender Male, age 6-8 weeks
Conditions: in vivo, po, route oral GAVAGE, vehicle 100 % WATER; for BASOPHIL / EOSINOPHIL / ERYTHROCYTE COUNT / HEMATOCRIT / HEMOGLOBIN / LEUKOCYTE COUNT / LYMPHOCYTE / MEAN CORPUSCULAR HEMOGLOBIN / MEAN CORPUSCULAR HEMOGLOBIN CONCENTRATION / MEAN CORPUSCULAR VOLUME / MONOCYTE / NEUTROPHIL / PLATELET COUNT: tissue Blood; for ALANINE AMINOTRANSFERASE / ALBUMIN / ALKALINE PHOSPHATASE / ASPARTATE AMINOTRANSFERASE / BLOOD UREA NITROGEN / CHLORIDE / CHOLESTEROL / CREATINE PHOSPHOKINASE / CREATININE / GLUCOSE / PHOSPHORUS / POTASSIUM / SODIUM / TOTAL BILIRUBIN / TOTAL PROTEIN: tissue Plasma
[1] = 0 mg/kg, 72 h, dose level Control, time 3 day
[2] = 0 mg/kg, 120 h, dose level Control, time 5 day
[3] = 3 mg/kg, 72 h, dose level Low, time 3 day
[4] = 3 mg/kg, 120 h, dose level Low, time 5 day
[5] = 24 mg/kg, 72 h, dose level High, time 3 day
[6] = 24 mg/kg, 120 h, dose level High, time 5 day

For `Nc1c2c(nc3ccccc13)CCCC2` [TACRINE], the BASOPHIL [1] was 0%, the EOSINOPHIL [1] was 0.5% and the “ERYTHROCYTE COUNT” value [1] was 5.8 x10E6/uL. The HEMATOCRIT [1] was 35.07%, the HEMOGLOBIN [1] was 14.12 G/DL and the “LEUKOCYTE COUNT” value [1] was 13.7 x10E3/uL. For the same molecule, the LYMPHOCYTE [1] was 82.33%, the “MEAN CORPUSCULAR HEMOGLOBIN” value [1] was 24.38 pg and the “MEAN CORPUSCULAR HEMOGLOBIN CONCENTRATION” value [1] was 40.28 G/DL. For the same molecule, the “MEAN CORPUSCULAR VOLUME” value [1] was 60.52 fL, the MONOCYTE [1] was 2.67% and the NEUTROPHIL [1] was 14.5%. For the same molecule, the “PLATELET COUNT” value [1] was 911.5 x10E3/uL, the “ALANINE AMINOTRANSFERASE” value [1] was 36.83 u/L and the ALBUMIN [1] was 3.75 G/DL. The “ALKALINE PHOSPHATASE” value [1] was 399.83 u/L, the “ASPARTATE AMINOTRANSFERASE” value [1] was 66 u/L and the “BLOOD UREA NITROGEN” value [1] was 14.67 mg/dL. The CHLORIDE [1] was 101.67 MEQ/L, the CHOLESTEROL [1] was 66.33 mg/dL and the “CREATINE PHOSPHOKINASE” value [1] was 139.5 u/L. For the same molecule, the CREATININE [1] was 0.92 mg/dL, the GLUCOSE [1] was 175 mg/dL and the PHOSPHORUS [1] was 11.42 mg/dL. The POTASSIUM [1] was 7.03 MEQ/L, the SODIUM [1] was 148.5 MEQ/L and the “TOTAL BILIRUBIN” value [1] was 1.13 mg/dL. For the same molecule, the “TOTAL PROTEIN” value [1] was 6.87 G/DL, the BASOPHIL [2] was 0% and the EOSINOPHIL [2] was 0.2%. The “ERYTHROCYTE COUNT” value [2] was 6.02 x10E6/uL, the HEMATOCRIT [2] was 36.48% and the HEMOGLOBIN [2] was 14.38 G/DL. For the same molecule, the “LEUKOCYTE COUNT” value [2] was 12.34 x10E3/uL, the LYMPHOCYTE [2] was 83% and the “MEAN CORPUSCULAR HEMOGLOBIN” value [2] was 23.92 pg. The “MEAN CORPUSCULAR HEMOGLOBIN CONCENTRATION” value [2] was 39.44 G/DL, the “MEAN CORPUSCULAR VOLUME” value [2] was 60.66 fL and the MONOCYTE [2] was 3%. The NEUTROPHIL [2] was 13.8%, the “PLATELET COUNT” value [2] was 1190.6 x10E3/uL and the “ALANINE AMINOTRANSFERASE” value [2] was 43 u/L. The ALBUMIN [2] was 3.73 G/DL, the “ALKALINE PHOSPHATASE” value [2] was 393 u/L and the “ASPARTATE AMINOTRANSFERASE” value [2] was 62.33 u/L. The “BLOOD UREA NITROGEN” value [2] was 16.33 mg/dL, the CHLORIDE [2] was 101.67 MEQ/L and the CHOLESTEROL [2] was 65.5 mg/dL. For the same molecule, the “CREATINE PHOSPHOKINASE” value [2] was 130.67 u/L, the CREATININE [2] was 0.58 mg/dL and the GLUCOSE [2] was 180.67 mg/dL. For the same molecule, the PHOSPHORUS [2] was 11.28 mg/dL, the POTASSIUM [2] was 7.05 MEQ/L and the SODIUM [2] was 148.17 MEQ/L. For the same molecule, the “TOTAL BILIRUBIN” value [2] was 0.72 mg/dL, the “TOTAL PROTEIN” value [2] was 6.83 G/DL and the BASOPHIL [3] was 0%. The EOSINOPHIL [3] was 0.33%, the “ERYTHROCYTE COUNT” value [3] was 5.96 x10E6/uL and the HEMATOCRIT [3] was 36.4%. The HEMOGLOBIN [3] was 14.47 G/DL, the “LEUKOCYTE COUNT” value [3] was 12.6 x10E3/uL and the LYMPHOCYTE [3] was 87.33%. For the same molecule, the “MEAN CORPUSCULAR HEMOGLOBIN” value [3] was 24.3 pg, the “MEAN CORPUSCULAR HEMOGLOBIN CONCENTRATION” value [3] was 39.77 G/DL and the “MEAN CORPUSCULAR VOLUME” value [3] was 61.13 fL. The MONOCYTE [3] was 1.67%, the NEUTROPHIL [3] was 10.67% and the “PLATELET COUNT” value [3] was 1303 x10E3/uL. The “ALANINE AMINOTRANSFERASE” value [3] was 36.33 u/L, the ALBUMIN [3] was 3.6 G/DL and the “ALKALINE PHOSPHATASE” value [3] was 362.33 u/L. The “ASPARTATE AMINOTRANSFERASE” value [3] was 59 u/L, the “BLOOD UREA NITROGEN” value [3] was 11.33 mg/dL and the CHLORIDE [3] was 102.67 MEQ/L. The CHOLESTEROL [3] was 64.33 mg/dL, the “CREATINE PHOSPHOKINASE” value [3] was 137.67 u/L and the CREATININE [3] was 0.53 mg/dL. For the same molecule, the GLUCOSE [3] was 188 mg/dL, the PHOSPHORUS [3] was 12.8 mg/dL and the POTASSIUM [3] was 7.17 MEQ/L. The SODIUM [3] was 151.33 MEQ/L, the “TOTAL BILIRUBIN” value [3] was 0.37 mg/dL and the BASOPHIL [4] was 0%. The EOSINOPHIL [4] was 0%, the “ERYTHROCYTE COUNT” value [4] was 5.42 x10E6/uL and the HEMATOCRIT [4] was 32.47%. For the same molecule, the HEMOGLOBIN [4] was 13.8 G/DL, the “LEUKOCYTE COUNT” value [4] was 15.5 x10E3/uL and the LYMPHOCYTE [4] was 85.67%. For the same molecule, the “MEAN CORPUSCULAR HEMOGLOBIN” value [4] was 25.47 pg, the “MEAN CORPUSCULAR HEMOGLOBIN CONCENTRATION” value [4] was 42.53 G/DL and the “MEAN CORPUSCULAR VOLUME” value [4] was 59.87 fL. The MONOCYTE [4] was 2%, the NEUTROPHIL [4] was 12.33% and the “PLATELET COUNT” value [4] was 1161.67 x10E3/uL. For the same molecule, the “ALANINE AMINOTRANSFERASE” value [4] was 32 u/L, the ALBUMIN [4] was 3.63 G/DL and the “ALKALINE PHOSPHATASE” value [4] was 344.33 u/L. For the same molecule, the “ASPARTATE AMINOTRANSFERASE” value [4] was 54 u/L, the “BLOOD UREA NITROGEN” value [4] was 12.67 mg/dL and the CHLORIDE [4] was 103 MEQ/L. For the same molecule, the CHOLESTEROL [4] was 67.33 mg/dL, the “CREATINE PHOSPHOKINASE” value [4] was 106 u/L and the CREATININE [4] was 0.57 mg/dL. For the same molecule, the GLUCOSE [4] was 184.33 mg/dL, the PHOSPHORUS [4] was 12.4 mg/dL and the POTASSIUM [4] was 6.33 MEQ/L. The SODIUM [4] was 150.33 MEQ/L, the “TOTAL BILIRUBIN” value [4] was 0.37 mg/dL and the “TOTAL PROTEIN” value [4] was 6.6 G/DL. For the same molecule, the BASOPHIL [5] was 0%, the EOSINOPHIL [5] was 0.33% and the “ERYTHROCYTE COUNT” value [5] was 6.15 x10E6/uL. For the same molecule, the HEMATOCRIT [5] was 36.57%, the HEMOGLOBIN [5] was 14.57 G/DL and the “LEUKOCYTE COUNT” value [5] was 11.57 x10E3/uL. For the same molecule, the LYMPHOCYTE [5] was 88%, the “MEAN CORPUSCULAR HEMOGLOBIN” value [5] was 23.7 pg and the “MEAN CORPUSCULAR HEMOGLOBIN CONCENTRATION” value [5] was 39.83 G/DL. For the same molecule, the “MEAN CORPUSCULAR VOLUME” value [5] was 59.5 fL, the MONOCYTE [5] was 2.67% and the NEUTROPHIL [5] was 9%. The “PLATELET COUNT” value [5] was 1311.33 x10E3/uL, the “ALANINE AMINOTRANSFERASE” value [5] was 35.33 u/L and the ALBUMIN [5] was 3.7 G/DL. For the same molecule, the “ALKALINE PHOSPHATASE” value [5] was 375 u/L, the “ASPARTATE AMINOTRANSFERASE” value [5] was 63.67 u/L and the “BLOOD UREA NITROGEN” value [5] was 12 mg/dL. For the same molecule, the CHLORIDE [5] was 101.67 MEQ/L, the CHOLESTEROL [5] was 59.33 mg/dL and the “CREATINE PHOSPHOKINASE” value [5] was 117 u/L. The CREATININE [5] was 0.53 mg/dL, the GLUCOSE [5] was 189 mg/dL and the PHOSPHORUS [5] was 12.73 mg/dL. For the same molecule, the POTASSIUM [5] was 6.83 MEQ/L, the SODIUM [5] was 150 MEQ/L and the “TOTAL BILIRUBIN” value [5] was 0.37 mg/dL. The “TOTAL PROTEIN” value [5] was 6.53 G/DL, the BASOPHIL [6] was 0% and the EOSINOPHIL [6] was 0.33%. For the same molecule, the “ERYTHROCYTE COUNT” value [6] was 6.22 x10E6/uL, the HEMATOCRIT [6] was 37.53% and the HEMOGLOBIN [6] was 14.57 G/DL. The “LEUKOCYTE COUNT” value [6] was 11.73 x10E3/uL, the LYMPHOCYTE [6] was 88.33% and the “MEAN CORPUSCULAR HEMOGLOBIN” value [6] was 23.43 pg. For the same molecule, the “MEAN CORPUSCULAR HEMOGLOBIN CONCENTRATION” value [6] was 38.8 G/DL, the “MEAN CORPUSCULAR VOLUME” value [6] was 60.47 fL and the MONOCYTE [6] was 2.33%. The NEUTROPHIL [6] was 9%, the “PLATELET COUNT” value [6] was 1085 x10E3/uL and the “ALANINE AMINOTRANSFERASE” value [6] was 38 u/L. The ALBUMIN [6] was 3.53 G/DL, the “ALKALINE PHOSPHATASE” value [6] was 295.33 u/L and the “ASPARTATE AMINOTRANSFERASE” value [6] was 62.67 u/L. For the same molecule, the “BLOOD UREA NITROGEN” value [6] was 13.33 mg/dL, the CHLORIDE [6] was 104.67 MEQ/L and the CHOLESTEROL [6] was 62 mg/dL. For the same molecule, the “CREATINE PHOSPHOKINASE” value [6] was 114.67 u/L, the CREATININE [6] was 0.6 mg/dL and the GLUCOSE [6] was 171 mg/dL. The PHOSPHORUS [6] was 12.57 mg/dL, the POTASSIUM [6] was 6.4 MEQ/L and the SODIUM [6] was 152.33 MEQ/L. For the same molecule, the “TOTAL BILIRUBIN” value [6] was 0.27 mg/dL and the “TOTAL PROTEIN” value [6] was 6.33 G/DL.
